# Entries after “also recorded” stand apart in the source; their conditions may differ.
# Experiments:
# endothelial cell (EC) = test: EC Proliferation Assay, [3H]thymidine incorporation (Example 36, Table 1); assay type: cell-based; settings: Table 1 and FIG. 3
# Method: Human umbilical vein derived EC(HUVEC) were harvested from normal human umbilical cords by perfusion with 0.125% trypsin/EDTA as described in Groenewegen et al., J. Exp. Med. 164, 131-143 (1986). For determination of quiescent EC phenotype isolated ECs were immediately fixed in 1% paraformaldehyde. Human microvascular ECs (MVECs) were isolated. ECs were cultured in fibronectin coated tissue culture flasks in culture medium (RPMJ-1640 with 20% human serum (HS), supplemented with 2 mM glutamine and 100 U/ml penicillin and 0.1 mg/ml streptomycin).
# EC proliferation was measured using a [^3H]thymidine incorporation assay. ECs were seeded at 5000 cells/well in flatbottomed tissue culture plates and grown for 3 days, in the absence or presence of regulators, in culture medium. During the last 6 hours of the assay, the culture was pulsed with 0.5μ Ci [methyl-^3H]thymidine/well.
# fibroblasts = test: Proliferation of fibroblasts (general cell toxicity check); assay type: cell-based
# [1] = test system: MA148 human ovarian carcinoma; test: Proliferation of MA148 tumor cells; assay type: cell-based; settings: read-out: IC50 against MA148 tumor cells
# [2] = test system: MA148 human ovarian carcinoma; test: MA148 tumor growth model in athymic mice; assay type: in vivo; settings: for tumor growth inhibition: MA148, end of 28 days; for MA148 tumor growth (in words): tumor-bearing mice
# Method: (§1) Female athymic nude mice (nu/nu, 5-6 weeks old) were used. These mice were purchased from the National Cancer Institute and allowed to acclimatize to local conditions for at least one week. Animals were given water and standard chow ad libitum, and were kept on a 12-hour light/dark cycle. All experiments were approved by the University of Minnesota Research Animal Resources ethical committee. Mice were randomized and split into three groups: 1) human serum albumin (10 mg/kg/day), 2) βpep-25 (10 mg/kg/day) and 3) peptide mimetic agent (5 mg or 10 mg/kg/day). Test compounds were diluted in DMSO and administered using osmotic mini-pumps (Durect, Cupertino, Calif.). Exponentially growing MA148 human ovarian carcinoma cells, kindly provided by Prof. Ramakrishnan (R. P. Dings et al., Cancer Res., 63, 382-385 (2003)) or B16 mouse melanoma cells were cultured in RPM1 1640 medium (Life Technologies, Grand Island, N.Y.). This medium was supplemented with 10% fetal bovine serum and 1% penicillin/streptomycin (Cellgro, Mediatech, Washington, D.C.) at 37° C and 5% CO2. One hundred microliters (100 μL) of this tumor cell suspension (2×10^7 cells/ml) was then injected subcutaneously into the right flank of each mouse. Pumps were implanted into the left flank of mice for subcutaneous administration of compound over a 28-day treatment span.
# Two variants of this model were used: prevention and intervention. For the prevention variant, treatment was initiated at the time of inoculation with MA148 cells. For the intervention variant, tumors were allowed to grow to an average size of 50 mm^3 (usually day 7 post inoculation) before treatment was initiated. With either variant, animals were randomized prior to the initiation of treatment. Treatment was administered via osmotic mini-pumps (Durect, Cupertino, Calif.), which were implanted subcutaneously in the left flank of mice. Concentrated solutions of βpep-25 or DBF analogs were formulated such that the 28-day treatment period would be covered by implantation of a single pump. In each study, control groups of animals were administered either PBS or PBS containing human serum albumin.
# Female athymic nude mice (nu/nu, 5-6 weeks old) or C57BL/6 male mice were purchased from the National Cancer Institute and allowed to acclimatize to local conditions for at least one week. Animals were provided water and standard chow ad libitum, and were kept on a 12 hour light/dark cycle. All experiments followed protocols approved by the University of Minnesota Research Animal Resources Ethical Committee. Exponentially growing MA148 human ovarian carcinoma cells, kindly provided by Prof. Ramakrishnan (Dings et al., Cancer Res 63, 382-385 (2003)), and B16F10 murine melanoma cells, kindly provided by Prof. Fidler, were cultured in RPM1 1640 medium (Life Technologies, Grand Island, N.Y.) (van der Schaft, et al., Faseb J 16, 1991-1993 (2002)). This medium was supplemented with 10% fetal bovine serum and 1% penicillin/streptomycin (Cellgro, Mediatech, Washington, D.C.) at 37° C. and 5% CO2. 100 μL of this tumor cell suspension (2×10^7 MA148 cells/ml and 2×10^6 B16F10 cells/ml) was then injected subcutaneously into the right hind flank of each mouse (athymic or C57BL/6, respectively).
# Tumors were allowed to grow to an average size of at least 50 mm^3 before treatment was initiated, and animals were randomized prior to the initiation of treatment. Treatment was administered in one of two ways: s.c. from osmotic mini-pumps, and i.p. injection. Osmotic mini-pumps (Durect, Cupertino, Calif.) were implanted subcutaneously in the left flank of mice, and concentrated solutions of calixarene analogs or βpep-25 were formulated in PBS containing 30% (v/v) DMSO such that the 14-day or 28-day treatment period would be covered by implantation of a single pump. In each study, control groups of animals were administered either PBS (30% DMSO v/v) or PBS containing human serum albumin to control for protein content. […]
# [3] = Hematocrit levels, first (MA148) study; assay type: in vivo, mice; settings: last day of treatment, vehicle 47±5.7
# Method: As an indirect measurement of general toxicity, body weights of mice were monitored twice weekly, using a digital balance (Ohaus Florham, N.J.). To determine hematocrit levels, blood samples were extracted by tail vein bleedings one day after terminating treatment, and blood was collected in heparinized micro-hematocrit capillary lubes (Fisher Pittsburgh, Pa.). Samples were spun down for 10 minutes in a micro-hematocrit centrifuge (Clay-Adams; NY), and the amount of hematocrit was determined using an international microcapillary reader (IEC; Needham, Mass.).
# [4] = test system: leukocytes in tumors of tumor bearing mice; test: Leukocyte infiltration into tumors, anti-CD45 and anti-CD8 staining; assay type: in vivo; settings: compared with βpep-25; FIG. 4
# Method: as §1, with “One hundred microliters (100 μL) of this tumor cell suspension (2×10^7 cells/ml) was then injected subcutaneously into the right flank of each mouse. Pumps were implanted into the left flank of mice for subcutaneous administration of compound over a 28-day treatment span.” left out
# Similar size tumors without apparent widespread necrosis were embedded in tissue freezing medium (Miles Inc.; Elkart, Ind.) and snap frozen in liquid nitrogen. […] The vessel density and architecture was quantified as described earlier [Griffioen et al., Biochemical Journal 354, 233-242 (2001)]. […]
# [5] = 10 mg/kg/day s.c. osmotic mini-pump
Compound,antiangiogenic activity (in words) (endothelial cell (EC); trifluoroacetic acid salt),"IC50 (fibroblasts; read-out: concentration giving 50% growth inhibition, fibroblasts) [µM]",IC50 [1] [µM],tumor growth inhibition ([2]; 2.7 mg/kg/day s.c. osmotic mini-pump),"tumor growth inhibition [2, 5]",MA148 tumor growth (in words) ([2]; trifluoroacetic acid salt),Hematocrit levels ±SD ([3]; 2.7 mg/kg),Hematocrit levels ±SD ([3]; 10 mg/kg),leukocyte infiltration into tumors (in words) [4],antiangiogenic activity (in words) (endothelial cell (EC)),antiangiogenic activity (in words) (endothelial cell (EC); listed as KM0118 (40)),"concentration giving 50% growth inhibition, fibroblasts (fibroblasts)",tumor growth inhibition ([2]; 2.4 mg/kg/day s.c. osmotic mini-pump),MA148 tumor growth (in words) [2],MA148 tumor growth (in words) ([2]; listed as KM0118 (40)),Hematocrit levels ±SD ([3]; 2.4 mg/kg)
"5,11,17,23-Tetra-tert-butyl-25,27-bis(2-guanidinoethoxy)-26,28-dihydroxy calix[4]arene trifluoroacetic acid salt [Compound 27]",excellent antiangiogenic activity; also recorded: exceptional antiangiogenic activity,~20,3,about 65%,about 65%,inhibits MA148 tumor growth; also recorded: significantly inhibited,46.5±0.7 percentage of red blood cells,47±4.2 percentage of red blood cells,clearly more effective at increasing leukocyte infiltration into tumors than βpep-25,,,,,,,
CN(C)CCNC(=O)COc1c2cccc1Cc1cccc(c1OCC(=O)NCCN(C)C)Cc1cccc(c1OCC(=O)NCCN(C)C)Cc1cccc(c1OCC(=O)NCCN(C)C)C2 [Compound 40],,,1,,81%,,,49.5±2.1 percentage of red blood cells,clearly more effective at increasing leukocyte infiltration into tumors than βpep-25,exceptional antiangiogenic activity,excellent antiangiogenic activity,no delectable effects,about 65%,inhibition of MA148 tumor growth,significantly inhibited,50±1.4 percentage of red blood cells

# Reference: patent US8642656B2, “Calixarene-based peptide conformation mimetics, methods of use, and methods of making” (priority 2004, dated 2014)
